# Measurements reported in patent publication US20220017971A1, “COMPOSITION FOR PREDICTING CHEMOTHERAPY RESISTANCE OF OVARIAN CANCER AND USE THEREOF” (KOOKMIN UNIVERSITY INDUSTRY ACADEMY COOPERATION FOUNDATION, priority 2020, published 2022).
# What was measured:
# Format in all cases: cell-based
# OV90 cells [1] = test: Cell proliferation capacity using BrdU, OV90; details: for proliferative capability (BrdU incorporation): agent alone; for proliferative capability reduced by cisplatin (BrdU): combined treatment with cisplatin; for proliferative capability reduced by paclitaxel (BrdU): combined treatment with paclitaxel
# Description: (§1) Epithelial ovarian cancer OV90 and ES2 cells were cultured in 6 wells, and a non-specific control and target oligonucleotide were transfected using Lipofectamine 2000 (Invitrogen). All oligonucelotides were synthesized by to Bioneer. Oligonucleotide and Lipofectamine 2000 were diluted in Opti-MEM reduced serum medium (Gibco, Cat No: 32985070) and then treated with cells. After 6 h of incubation at 37° C. in a 5% CO2 incubator, the medium was replaced with a medium containing FBS.
# (§2) An experiment was performed according to the manufacturer's manual using the BrdU kit (Cat No: 1167229001, Roche) to confirm the change in the proliferation ability of epithelial ovarian cancer cells. After 48 hours of incubation, 10 μM BrdU was additionally added to each well and incubated for 2 hours at 37° C./5% CO2 in an incubator. After labeling the epithelial ovarian cancer cells with BrdU and fixing the cells, they were incubated with anti-BrdU-POD solution at room temperature for 90 minutes, and then washed three times. Finally, the cells were reacted with 100 μl of 3,3′, 5,5′-tetramethylbenzidine substrate, and the cell proliferation ability was analyzed by measuring the absorbance at 370 nm and 492 nm using an ELISA reader.
# PCNA [2] = test: PCNA expression (qPCR, immunofluorescence), OV90; details: OV90 cells; for PCNA expression: anticancer drug alone; for PCNA expression reduced by cisplatin: combined treatment with cisplatin
# Description: (§3) cDNA was synthesized from 1 μg of RNA using AccuPower RT PreMix (Bioneer, Daejeon, Korea). Gene expression was measured using SYBR Green (Sigma) and the StepOnePlus Real-Time PCR system (Applied Biosystems, Foster City, Calif.). PCR conditions were incubated at 95° C. for 3 minutes, then 95° C. 30 seconds, 60° C. 30 seconds, and 72° C. 3 minutes conditions were amplified 40 times, and normalized based on the GAPDH expression level.
# (§4) Transfected epithelial ovarian cancer cells were fixed with methanol for 10 minutes and treated with PCNA antibody diluted in 1:100. After that, after washing twice with PBS containing 0.1% bovine serum albumin (BSA), the secondary antibody goat anti-mouse IgG Alexa 488 (catalog number: A11017, Invitrogen, Carlsbad, Calif.) was added to antibody dilution buffer so as to be diluted in 1:200 and incubated for 1 hour at room temperature.
# (§5) After washing the cells with 0.1% BSA-PBS, DAPI staining was additionally performed to allow simultaneous observation of the target protein as well as the nucleus. After finishing the experiment, cells were observed and photographed using an LSM710 (Carl Zeiss, Thornwood, N.Y., USA) confocal microscope.
# PCNA [3] = test: PCNA expression (qPCR, immunofluorescence), ES2; details: ES2 cells; for PCNA expression: anticancer drug alone; for PCNA expression reduced by cisplatin: combined treatment with cisplatin
# Description: as §3, §4, §5
# ES2 cells [4] = test: Cell proliferation capacity using BrdU, ES2; details: for proliferative capability (BrdU incorporation): agent alone; for proliferative capability reduced by cisplatin (BrdU): combined treatment with cisplatin; for proliferative capability reduced by paclitaxel (BrdU): combined treatment with paclitaxel
# Description: as §1, §2
# OV90 cells [5] = test: Cell migration, OV90
# OV90 cells [6] = test: Intracellular ROS measurement using DCFH-DA, OV90
# Description: (§6) ES2 and OV90 cells were collected through trypsin and centrifuged to obtain a cell pellet. After washing once with PBS, 10 μM of DCFH-DA was incubated in an incubator at 37° C. for 30 minutes. Thereafter, the cells were washed twice with PBS, and a miR-214-3p inhibitor was added thereto and incubated in an incubator at 37° C. for 1 hour. Treated cells were washed again with PBS and analyzed for DCF fluorescence intensity using flow cytometry.
# ES2 cells [7] = test: Intracellular calcium concentration by fluo-4 staining, ES2
# Description: (§7) To check the intracellular calcium concentration of ovarian cancer cells, 3 μM of fluo-4 acetoxymethyl ester (AM) (Invitrogen) was used. First, 5×10^5 cells were cultured in 6 wells. Thereafter, the miR-214-3p inhibitor was dose-dependently treated and cultured in a 37° C./5% CO2 incubator for 48 hours. After that, cells were removed from the culture dish using trypsin, washed with PBS, and stained with 3 μM fluo-4 in an incubator at 37° C./5% CO2 for 20 minutes, washed with PBS, and then the stained solution was transferred into a FACS tube and the fluorescence intensity was analyzed using a flow cytometer to […].
# ES2 cells [8] = test: Cell migration, ES2
# LHX6 [9] = test: LHX6 gene expression after oligonucleotide transfection (qPCR), ES2; details: ES2 cells
# Description: as §3, §1
# (§8) Next, to analyze whether miR-214-3p can alter the characteristics of epithelial ovarian cancer cells, OV90 and ES2 cells, epithelial ovarian cancer cell lines, were transfected with a mimic for miR-214 and an inhibitor for miR-214-3p (SEQ ID NO: 2: 5′-ACUGCCUGUCUGUGCCUGCUGU-3′).
# LHX6 [10] = test: LHX6 gene expression after oligonucleotide transfection (qPCR), OV90; details: OV90 cells
# Description: as §3, §1, §8
# ES2 cells [11] = test: Apoptosis by annexin V and propidium iodide staining, ES2
# Description: (§9) In order to confirm the change in the apoptosis effect of epithelial ovarian cancer cells, an experiment was performed using the FITC Annexin V cell death diagnostic kit I (BD Biosciences). Using trypsin, the cells were removed from the culture dish, washed with PBS, and the cells were slowly mixed using 1 mL of 1× binding buffer and then centrifuged to obtain a cell pellet.
# (§10) Next, the cells were suspended and cultured with 200 μL of 1× binding buffer, put into 100 μL of a brown 1.5 mL tube, and cells were mixed with 5 μL of Annexin V and 5 μL of PI, and then stained at room temperature for 15 minutes. After that, 400 μL of 1×binding buffer was added and the stained solution was transferred to a 5 mL FACS tube, and then the fluorescence intensity was analyzed using a flow cytometer to measure the number of apoptotic cells.
# OV90 cells [12] = test: Intracellular calcium concentration by fluo-4 staining, OV90
# Description: as §7
# OV90 cells [13] = test: Apoptosis by annexin V and propidium iodide staining, OV90
# Description: as §9, §10
# ES2 cells [14] = test: Intracellular ROS measurement using DCFH-DA, ES2
# Description: as §6
# ES2 cells [15] = test: Mitochondrial membrane potential by JC-1 staining, ES2
# Description: (§11) JC-1 mitochondrial membrane potential (MMP) changes were measured using a mitochondria staining kit (Cat No: CS0390, Sigma-Aldrich). 5×10^5 ES2 and OV90 cells were each aliquoted into 6 wells, and the cells were cultured until 70 to 80% abundance of the culture dish appeared. Thereafter, the miR-214-3p inhibitor was dose-dependently treated and cultured in a 37° C./5% CO2 incubator for 48 hours. Thereafter, cells were collected from the culture dish using trypsin and centrifuged to obtain a cell pellet. Cells were dissolved in JC-1 staining solution and incubated for 20 minutes at 37° C./5% CO2 incubator. The stained cells were centrifuged again, washed with 1×JC-1 staining buffer, and then fluorescence intensity was analyzed using a flow cytometer.
# OV90 cells [16] = test: Mitochondrial membrane potential by JC-1 staining, OV90
# Description: as §11
# OV90 cells [17] = test: Cell cycle analysis using propidium iodide staining, OV90; details: 48 hours
# Description: (§12) In order to confirm the cell cycle change of ovarian cancer cells by the miR-214-3p inhibitor, 5×10^5 cells were cultured in 6 wells until 70 to 80% abundance appeared. Thereafter, miR-214-3p inhibitors were treated in a dose-dependent manner (10, 20, 40 nM) and cultured in a 37° C./5% CO2 incubator for 48 hours. Then, using trypsin, the cells were removed from the culture dish, washed with PBS, and the cells were slowly mixed using 1 mL of 1× binding buffer, and then centrifuged to obtain a cell pellet.
# (§13) Next, the cells were suspended and cultured with 200 μL of 1× binding buffer, put in 100 μL in a brown 1.5 mL tube, and 5 μL of RNase and 5 μL of PI were mixed together to stain the cells for 1 hour at room temperature. After that, 400 μL of 1× binding buffer was added, the stained solution was transferred to a 5 mL FACS tube, and the fluorescence intensity was analyzed using a flow cytometer to measure the number of cells corresponding to each cell cycle.
# ES2 cells [18] = test: Cell cycle analysis using propidium iodide staining, ES2; details: 48 hours
# Description: as §12, §13
# [19] = combined treatment with paclitaxel
molecule,measurement,setting,value
N.N.[Cl][Pt][Cl] [cisplatin],proliferative capability (BrdU incorporation),OV90 cells [1],reduced
same,PCNA expression,PCNA [2],significantly reduced
same,PCNA expression,PCNA [3],significantly reduced
same,proliferative capability (BrdU incorporation),ES2 cells [4],reduced
CC(=O)O[C@H]1C(=O)[C@@]2(C)[C@H]([C@H](OC(=O)c3ccccc3)[C@]3(O)C[C@H](OC(=O)[C@H](O)[C@@H](NC(=O)c4ccccc4)c4ccccc4)C(C)=C1C3(C)C)[C@]1(OC(C)=O)CO[C@@H]1C[C@@H]2O [paclitaxel],proliferative capability (BrdU incorporation),OV90 cells [1],reduced
same,PCNA expression,PCNA [2],reduced
same,PCNA expression,PCNA [3],reduced
same,proliferative capability (BrdU incorporation),ES2 cells [4],reduced
"miR-214-3p inhibitor: inhibitor for miR-214-3p (SEQ ID NO: 2: 5′-ACUGCCUGUCUGUGCCUGCUGU-3′) (ACUGCCUGUCUGUGCCUGCUGU; listed as RNA, chemistry not given here)",proliferative capability (BrdU incorporation),OV90 cells [1],inhibit the proliferative capability
same,proliferative capability reduced by cisplatin (BrdU),OV90 cells [1],further reduced
same,proliferative capability reduced by paclitaxel (BrdU),OV90 cells [1],further reduced
same,cell migration,OV90 cells [5],reduced
same,reactive oxygen species,OV90 cells [6],increased
same,intracellular calcium ions,ES2 cells [7],increased
same,cell migration,ES2 cells [8],reduced
same,expression of the target gene LHX6,LHX6 [9],increased
same,expression of the target gene LHX6,LHX6 [10],increased
same,increase of apoptotic cells,"ES2 cells [11]; 40 nM, p<0.001",1.7 fold
same,apoptotic cell death compared to the control group,ES2 cells [11]; transfection,significantly increased
same,intracellular calcium ions,OV90 cells [12],increased
same,increase of apoptotic cells,"OV90 cells [13]; 40 nM, p<0.001",2.6 fold
same,apoptotic cell death compared to the control group,OV90 cells [13]; transfection,significantly increased
same,reactive oxygen species,ES2 cells [14],increased
same,PCNA expression reduced by cisplatin,PCNA [2],further decreased
same,PCNA expression reduced by paclitaxel,PCNA [2]; [19],further decreased
same,mitochondrial membrane potential,ES2 cells [15],induced a change
same,mitochondrial membrane potential,OV90 cells [16],induced a change
same,sub-G1 of the cell cycle,OV90 cells [17],increasing
same,sub-G1 of the cell cycle,ES2 cells [18],increasing
same,PCNA expression reduced by cisplatin,PCNA [3],further decreased
same,PCNA expression reduced by paclitaxel,PCNA [3]; [19],further decreased
same,proliferative capability (BrdU incorporation),ES2 cells [4],inhibit the proliferative capability
same,proliferative capability reduced by cisplatin (BrdU),ES2 cells [4],further reduced
same,proliferative capability reduced by paclitaxel (BrdU),ES2 cells [4],further reduced
"siLHX6: siRNA that inhibits the expression of LHX6 (SEQ ID NO: 3 sense 5′-GAG UCA UCC UUU UUC AGU A-3′, SEQ ID NO: 4 antisense) (sense GAGUCAUCCUUUUUCAGUA; antisense UACUGAAAAAGGAUGACUC; listed as RNA, chemistry not given here)",increase of proliferative levels,OV90 cells [1]; 40 nM,1.4 fold
same,proliferative capability (BrdU incorporation),OV90 cells [1],significantly increased
same,proliferative capability reduced by cisplatin (BrdU),OV90 cells [1],restored
same,proliferative capability reduced by paclitaxel (BrdU),OV90 cells [1],restored
same,PCNA expression reduced by cisplatin,PCNA [2],restored
same,mRNA and protein level expression of PCNA,PCNA [2]; qPCR and immunofluorescence,significantly increased
same,PCNA expression reduced by cisplatin,PCNA [3],restored
same,mRNA and protein level expression of PCNA,PCNA [3]; qPCR and immunofluorescence,significantly increased
same,increase of proliferative levels,ES2 cells [4]; 40 nM,1.4 fold
same,proliferative capability (BrdU incorporation),ES2 cells [4],significantly increased
same,proliferative capability reduced by cisplatin (BrdU),ES2 cells [4],restored
same,proliferative capability reduced by paclitaxel (BrdU),ES2 cells [4],restored
